Results published in patent US9789181B2, “PAN-DR binding polypeptides and uses thereof” (Epimmune Inc., priority 2009, dated 2017).
Where no end group is shown, it is not given here.

Legend:
[1] = system: crude extract from E. coli; test: In situ protease assay: TNFα variants in E. coli crude extract, SDS-PAGE and Western blot; assay type: in vitro ADME; details: sequence inserted into loop EF of human TNFα, procedure of Example 2
Description: In order to test the protease resistance of selected, good binding PADRE analogues, their sequences were inserted by cloning techniques into a loop (loop EF) in human TNFα. Cell-free protein crude extract from E. coli expressing the modified TNFα molecules was prepared and proteolytic cleavage within the PADRE analogue sequences was analysed by SDS-PAGE followed by immunoblotting.
A synthetic cDNA encoding TNF (Y87S) was used as template. Oligonucleotides encoding PADRE or PADRE analogues were inserted into the template between A185 and E186 by PCR (cf. above). Resulting cDNAs were cloned into pET28b+(Novagen) and transformed into E. coli strain HMS 174. For recombinant expression, the resulting E. coli strains were cultured in fermentors in a defined medium at 37° C. Induction of recombinant expression was initiated by the addition of 1 mM of IPTG and temperature was lowered to 25° C. Cultures were harvested at 4, 8 or 24 h post-IPTG induction. TNFα variants were purified to >90% homogeneity by affinity chromatography using a TNFα specific monoclonal antibody as described in Nielsen et al., (2004), J Biol. Chem. 279:33593-33600. The purified TNFα variants were characterized by MALDI-TOF mass spectrometry to verify their identity and integrity.
In Situ Protease Assay: Analysis of the Protease Resistance of TNF-α Variants Using Western Blot
Aliquots (1 ml) of E. coli cell cultures, expressing the various TNF-α variants to be tested, were centrifuged (5000 g/5 min/5° C.) and the culture medium was discarded. Cell pellets were resuspended in 1 ml of 20 mM Bis-Tris, pH 6.0. Cell disruption was achieved by sonication (4×15 sec at an amplitude of 11 μm with 20 sec pauses between each sonication round). The resulting suspensions were centrifuged (20000 g/30 min/8° C.) and the supernatants (crude extracts) were transferred to fresh tubes. Crude extracts were then analysed for protein content using a Bradford protein assay (Biorad). Equivalent amounts of proteins were loaded onto 4-12% NuPAGE gels (Novex). After SDS-PAGE, proteins were transferred onto nitrocellulose membrane by semi-dry blotting. For immunoreaction, incubation with rabbit TNFα antiserum (1 h; dilution 1:10 000) and with horse radish peroxidase-conjugated secondary antibody (Dako P448) were carried out in Tris 50 mM, NaCl 150 mM, EDTA 5 mM, Igepal 0.1%, gelatine 0.5%. Detection was with ECL™ reagents (GE Healthcare).

HLA DRB1 *0405 = HLA DRB1 *0405 (Homo sapiens, UniProt P01903+P01911, A100R/A169T/D86S/F76Y/I96L/K127E/L162R/M171V/N62H/P40V/Q125Y/R42H/S133A/S149N/S66Y/V115G/V209L/W38E); test: IC50nM to purified HLA | DRB1 *0405
Description: (§1) Table printed on a drawing sheet, FIG. 1 (contd.)
Head of the field: IC50nM to purified HLA | DRB1 *0405
(§2) First copying reader's note: Continued from an earlier sheet of FIG. 1; decimal commas as printed, analog names encode substituted residues and positions, and some values are printed in italics or bold and some SEQ ID NOs underlined without a legend on this sheet.
Where the first naming reader finds the target: head: IC50nM to purified HLA | DRB1 *0405

HLA DRB1 *0701 = HLA DRB1 *0701 (Homo sapiens, UniProt P01903+P01911, A100R/A102G/A103Q/D57E/D86V/E43K/F76Y/K127E/L162R/M171V/P40G/Q125H/Q99D/R33Q/R42Y/R54Q/S133A/S66F/T210M/V115G/Y107V/Y59L/Y89S); test: IC50nM to purified HLA | DRB1 *0701
Description: as §1
Head of the field: IC50nM to purified HLA | DRB1 *0701
as §2
Where the first naming reader finds the target: head: IC50nM to purified HLA | DRB1 *0701

HLA DRB1 *0802 = HLA DRB1 *0802 (Homo sapiens, UniProt P01903+P01911, A100R/A103L/A169T/F76Y/H45Y/I96F/K41T/L162R/M171V/P40S/Q125H/Q178H/Q39Y/Q99D/R218S/R42G/S66Y/V115G/W38E); test: IC50nM to purified HLA | DRB1 *0802
Description: as §1
Head of the field: IC50nM to purified HLA | DRB1 *0802
as §2
Where the first naming reader finds the target: head: IC50nM to purified HLA | DRB1 *0802

HLA DRB4 *0101 = HLA DRB4 *0101 (Homo sapiens, UniProt P01903+P13762, G164S); test: IC50nM to purified HLA | DRB4 *0101
Description: as §1
Head of the field: IC50nM to purified HLA | DRB4 *0101
as §2
Where the first naming reader finds the target: head: IC50nM to purified HLA | DRB4 *0101

HLA DRB1 *1302 = HLA DRB1 *1302 (Homo sapiens, UniProt P01903+P01911, A100E/A169T/K41T/L162R/M171V/P40S/Q125H/Q178H/Q39Y/Q99D/R42S/S66N/T262R/V115G/W38E/Y61H); test: IC50nM to purified HLA | DRB1 *1302
Description: as §1
Head of the field: IC50nM to purified HLA | DRB1 *1302
as §2
Where the first naming reader finds the target: head: IC50nM to purified HLA | DRB1 *1302

HLA DRB1 *1501 = HLA DRB1 *1501 (Homo sapiens, UniProt P01903+P01911); test: IC50nM to purified HLA | DRB1 *1501
Description: as §1
Head of the field: IC50nM to purified HLA | DRB1 *1501
as §2
Where the first naming reader finds the target: head: IC50nM to purified HLA | DRB1 *1501

HLA DRB1 *0404 = HLA DRB1 *0404 (Homo sapiens, UniProt P01903+P01911, A100R/A169T/F76Y/I96L/K127E/L162R/M171V/N62H/P40V/Q125Y/R42H/S133A/S149N/S66Y/V209L/W38E); test: IC50nM to purified HLA | DRB1 *0404
Description: as §1
Head of the field: IC50nM to purified HLA | DRB1 *0404
as §2
Where the first naming reader finds the target: head: IC50nM to purified HLA | DRB1 *0404

Chain of HLA DRB1 *1302 (P01903 26-254 limits assumed, other chains not shown): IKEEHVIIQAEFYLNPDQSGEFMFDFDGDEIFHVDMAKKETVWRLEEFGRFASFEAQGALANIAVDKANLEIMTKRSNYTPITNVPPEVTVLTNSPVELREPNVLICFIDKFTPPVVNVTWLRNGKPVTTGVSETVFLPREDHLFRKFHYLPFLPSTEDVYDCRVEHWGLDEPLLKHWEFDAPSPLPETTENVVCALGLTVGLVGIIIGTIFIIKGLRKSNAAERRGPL
Chain of HLA DRB4 *0101 (P01903 26-254 limits assumed): as the sequence (P01903 26-254 limits assumed, other chains not shown) above
Chain of HLA DRB4 *0101 (P13762 whole entry G164S): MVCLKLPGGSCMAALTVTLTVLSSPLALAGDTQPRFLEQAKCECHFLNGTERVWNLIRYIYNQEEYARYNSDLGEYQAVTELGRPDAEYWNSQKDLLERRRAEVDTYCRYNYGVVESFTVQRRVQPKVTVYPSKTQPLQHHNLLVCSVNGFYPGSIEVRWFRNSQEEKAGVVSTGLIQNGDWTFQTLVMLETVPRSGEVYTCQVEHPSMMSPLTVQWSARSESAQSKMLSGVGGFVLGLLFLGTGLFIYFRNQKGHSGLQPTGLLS

Question: Which “protease resistance of PADRE analogue sequence” value [1] does the source give for AAAIFVAAWTLHAAA [SEQ ID NO: 69] here?
Answer: The value was “increased resistance towards proteolytic degradation”.

Question: And the IC50 (HLA DRB1 *0405)?
Answer: Its IC50 is 0.013 µM.

Question: What about the IC50 (HLA DRB1 *0701) of the same sequence?
Answer: The IC50 was 0.078 µM.

Question: What about the IC50 (HLA DRB1 *0802) of the same sequence?
Answer: The IC50 was 0.012 µM.

Question: What about the IC50 (HLA DRB4 *0101) of the same sequence?
Answer: The IC50 was 0.084 µM.

Question: And the IC50 (HLA DRB1 *1302)?
Answer: The IC50 was 0.891 µM.

Question: And the IC50 (HLA DRB1 *1501)?
Answer: Its IC50 is 0.0094 µM.

Question: What about the IC50 (HLA DRB1 *0404) of the same sequence?
Answer: Its IC50 is 0.0037 µM.
